Consider one compound from ChEMBL document CHEMBL4765292, “Flexible diaminodihydrotriazine inhibitors of Plasmodium falciparum dihydrofolate reductase: Binding strengths, modes of binding and their antimalarial activities” (Eur J Med Chem, 2020).

A word on the Ki: it is a dissociation constant, usually derived from enzyme kinetics or from competition with a known ligand. Broadly, the IC50 is the point on the concentration scale where inhibition reaches its midpoint.

Data set [1] can be described thus: Therapeutic index, ratio of IC50 for African green monkey Vero cells to IC50 for Plasmodium falciparum V1/S harboring DHFR N51I/C59R/S108N/I164L mutant. The format is toxicity. The following applies: read-out: Ratio IC50.
Data set [2] in a line: Inhibition of Plasmodium falciparum DHFR N51I/C59R/S108N mutant expressed in Escherichia coli BL21 using DHF as substrate by spectrophotometric analysis.
Data set [3] can be described thus: Inhibition of Plasmodium falciparum DHFR […] mutant expressed in Escherichia coli BL21 using DHF as substrate by spectrophotometric analysis.
Data set [4] relates to DHFR (human against Plasmodium falciparum DHFR double mutant). The experiment in a line: Selectivity index, ratio of Ki for human DHFR expressed in Escherichia coli BL21 to Ki for Plasmodium falciparum DHFR double mutant expressed in Escherichia coli BL21. Type of data set: toxicity. Particulars: read-out: Ratio Ki.
Data set [5] is described as follows: Therapeutic index, ratio of IC50 for African green monkey Vero cells to IC50 for Plasmodium falciparum K1CB1 harboring DHFR […] mutant. Type of data set: toxicity. The following applies: read-out: Ratio IC50.
Data set [6] concerns Plasmodium falciparum. The data set is described as follows: Antimalarial activity against Plasmodium falciparum CsI-2 harboring DHFR C59R/S108N/I164L mutant infected in human erythrocytes assessed as reduction in [3H]-hypoxanthine incorporation pretreated for 20 hrs followed by [3H]-hypoxanthine addition measured after 20 hrs by radioactivity method. The format is functional, organism-based. Particulars: CsI-2, Erythrocyte.

Data set [7] relates to Plasmodium falciparum. The data set is described as follows: Antimalarial activity against Plasmodium falciparum K1CB1 harboring DHFR […] mutant infected in human erythrocytes assessed as reduction in [3H]-hypoxanthine incorporation pretreated for 20 hrs followed by [3H]-hypoxanthine addition measured after 20 hrs by radioactivity method. The following applies: K1CB1, Erythrocyte. Type of data set: functional, organism-based.

For data set [8], the system named is Plasmodium falciparum. The experiment in a line: Antimalarial activity against Plasmodium falciparum TM4/8.2 infected in human erythrocytes assessed as reduction in [3H]-hypoxanthine incorporation pretreated for 20 hrs followed by [3H]-hypoxanthine addition measured after 20 hrs by radioactivity method. The format is functional, organism-based.
The test system of data set [9] is DHFR (human against Plasmodium falciparum DHFR N51I/C59R/S108N/I164L mutant). The data set is described as follows: Selectivity index, ratio of Ki for human DHFR expressed in Escherichia coli BL21 to Ki for Plasmodium falciparum DHFR N51I/C59R/S108N/I164L mutant expressed in Escherichia coli BL21. The following applies: read-out: Ratio Ki. Type of data set: toxicity.

Data set [10] has as its system Plasmodium falciparum. The data set is described as follows: Antimalarial activity against Plasmodium falciparum T9/94 RC17 harboring DHFR A16V/S108T mutant infected in human erythrocytes assessed as reduction in [3H]-hypoxanthine incorporation pretreated for 20 hrs followed by [3H]-hypoxanthine addition measured after 20 hrs by radioactivity method. The format is functional, organism-based. The following applies: T9/94 RC17, Erythrocyte.

Data set [11] in a line: Therapeutic index, ratio of IC50 for African green monkey Vero cells to IC50 for Plasmodium falciparum TM4/8.2. Particulars: against Plasmodium falciparum TM4/8.2, read-out: Ratio IC50. Type of data set: toxicity.
Data set [12] can be described thus: Inhibition of Plasmodium falciparum DHFR N51I/C59R/S108N/I164L mutant expressed in Escherichia coli BL21 using DHF as substrate by spectrophotometric analysis.
Data set [13] deals with DHFR (human against Plasmodium falciparum DHFR). The experiment in a line: Selectivity index, ratio of Ki for human DHFR expressed in Escherichia coli BL21 to Ki for Plasmodium falciparum DHFR expressed in Escherichia coli BL21. Type of data set: toxicity. The following applies: read-out: Ratio Ki.
Data set [14] deals with Plasmodium falciparum. The experiment in a line: Antimalarial activity against Plasmodium falciparum V1/S harboring DHFR N51I/C59R/S108N/I164L mutant infected in human erythrocytes assessed as reduction in [3H]-hypoxanthine incorporation pretreated for 20 hrs followed by [3H]-hypoxanthine addition measured after 20 hrs by radioactivity method. Particulars: Erythrocyte. The format is functional, organism-based.

A short description of data set [15]: Inhibition of Plasmodium falciparum DHFR using DHF as substrate by spectrophotometric analysis.
Data set [16] deals with Plasmodium falciparum. The data set is described as follows: Antimalarial activity against Plasmodium falciparum W2 harboring DHFR N51I/C59R/S108N mutant infected in human erythrocytes assessed as reduction in [3H]-hypoxanthine incorporation pretreated for 20 hrs followed by [3H]-hypoxanthine addition measured after 20 hrs by radioactivity method. Particulars: W2, Erythrocyte. Type of data set: functional, organism-based.

A short description of data set [17]: Inhibition of Plasmodium falciparum DHFR C59R/S108N/I164L mutant expressed in Escherichia coli BL21 using DHF as substrate by spectrophotometric analysis.
The next data set concerns Vero. The data set is described as follows: Cytotoxicity against African green monkey Vero cells assessed as reduction in cell viability incubated for 72 hrs by SRB assay. Type of data set: cell-based. The following applies: Chlorocebus sabaeus. In general terms: In SRB staining, fixed cells bind dye roughly in proportion to their protein.

Each structure is given as a SMILES string.

For the compound `NC1=NC(c2ccccc2)N(OCCCOc2cc(Cl)c(Cl)cc2Cl)C(N)=N1` (stereo not drawn), the selectivity ratio in [1] was 52; in [4] it was 76; in data set [5], 570; in [9] it was 207; in [11] it was 4920; in [13], 242. Also, the inhibition constant (Ki) is 1.6 nM in [2]; 1.9 nM in data set [3]; 0.7 nM in [12]; 0.6 nM in data set [15]; 0.3 nM in data set [17]. Also, the IC50 was 340 nM with Plasmodium falciparum [6]; 44 nM with Plasmodium falciparum [7]; 5.1 nM in the data set with Plasmodium falciparum [8]; 3.2 nM in the data set on Plasmodium falciparum [10]; 480 nM with Plasmodium falciparum [14]; 60 nM in the data set on Plasmodium falciparum [16]. Besides, in the data set on Vero, the IC50 amounted to 25100 nM.
